Values quoted from earlier work in patent publication US8992954B2, “Compositions comprising a derivative of 5-aminolevulinic acid” (Photocure ASA, priority 2010, dated 2015).

System: skin
Settings: Eucerin cream base with 5%, 10% and 20% by weight of ALA; occlusion 4 hours; visible light

- Skin reactions after the illumination: erythema and edema appeared
SMILES: NCC(=O)CCC(=O)O [Composition 5-ALA, 5-amino-4-oxo-pentanoic acid]
- Complaints during illumination: All volunteers complained about burning and itching
- Pigmentary response: pigmentary response was observed
